This passage reports % of inhibition and % of control results from ChEMBL document CHEMBL5465560, “Selectivity Literature for EUbOPEN Chemogenomic Library” (2024).

Substitutions are numbered along the chain they refer to.

Assay [1] deals with Mitogen-activated protein kinase 8 (Homo sapiens, UniProt P45983). Nature of the assay: Selectivity interaction (Upstate Kinase Profiler service (Millipore)) EUB0000056c MAPK8. The following applies: at 1 µM.
For assay [2], the target named is Serine/threonine-protein kinase 38-like (Homo sapiens) (UniProt Q9Y2H1). As to conditions: at 10 µM.
The target of assay [3] is Citron Rho-interacting kinase (Homo sapiens) (UniProt O14578). Put plainly: Selectivity interaction (Ambit KINOMEscan and KiNATiv profiling in Jurkat cells) EUB0000090b CIT. As to conditions: at 1 µM. In kind it is cell-based.
The subject of assay [4] is Receptor-type tyrosine-protein kinase FLT3 (Homo sapiens), P36888 [UNDEFINED MUTATION]. Nature of the assay: (§1) Selectivity interaction (KinomeScan (DiscoverX)) EUB0000666a FLT3. The following applies: at 10 µM.
Assay [5] has as its system T1, Receptor-type tyrosine-protein kinase FLT3 (Homo sapiens), P36888 [D835H].
T1 sequence (whole entry): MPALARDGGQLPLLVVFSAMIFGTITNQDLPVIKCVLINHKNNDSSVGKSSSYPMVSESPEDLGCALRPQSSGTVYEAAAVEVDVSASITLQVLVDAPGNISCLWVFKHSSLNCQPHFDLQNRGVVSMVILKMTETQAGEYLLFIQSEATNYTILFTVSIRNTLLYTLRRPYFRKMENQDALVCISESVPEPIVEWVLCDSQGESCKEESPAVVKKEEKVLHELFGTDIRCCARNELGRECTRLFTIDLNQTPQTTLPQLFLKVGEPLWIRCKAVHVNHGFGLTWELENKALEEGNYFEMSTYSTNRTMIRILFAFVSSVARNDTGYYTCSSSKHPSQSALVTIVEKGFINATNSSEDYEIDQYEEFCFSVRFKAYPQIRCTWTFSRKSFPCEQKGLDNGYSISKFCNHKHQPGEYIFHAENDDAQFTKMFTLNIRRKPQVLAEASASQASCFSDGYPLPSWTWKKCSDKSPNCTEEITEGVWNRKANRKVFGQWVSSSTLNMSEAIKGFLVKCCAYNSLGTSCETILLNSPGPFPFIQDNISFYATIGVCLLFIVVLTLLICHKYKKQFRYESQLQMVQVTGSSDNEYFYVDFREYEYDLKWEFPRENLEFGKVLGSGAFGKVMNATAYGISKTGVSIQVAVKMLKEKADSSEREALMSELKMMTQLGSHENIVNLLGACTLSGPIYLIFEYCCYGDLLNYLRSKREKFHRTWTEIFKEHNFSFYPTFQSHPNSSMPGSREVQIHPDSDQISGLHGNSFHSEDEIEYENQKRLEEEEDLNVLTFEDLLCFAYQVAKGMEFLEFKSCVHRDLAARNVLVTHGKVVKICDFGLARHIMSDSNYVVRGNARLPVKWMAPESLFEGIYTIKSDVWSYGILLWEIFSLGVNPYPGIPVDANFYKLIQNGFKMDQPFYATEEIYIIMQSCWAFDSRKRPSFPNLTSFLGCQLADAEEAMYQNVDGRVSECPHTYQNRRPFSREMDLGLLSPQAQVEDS
Described as §1. The following applies: at 10 µM.

Assay [6] concerns T2, Receptor-type tyrosine-protein kinase FLT3 (Homo sapiens), P36888 [N841I].
T2 sequence (whole entry): T1 sequence (whole entry) with H835D, N841I
Described as §1. As to conditions: at 10 µM.

For assay [7], the target named is Receptor-type tyrosine-protein kinase FLT3 (Homo sapiens) (UniProt P36888). Described as §1. As to conditions: at 10 µM.
Assay [8] addresses T3, Rhodopsin kinase GRK1 (Homo sapiens) (UniProt Q15835).
T3 sequence (whole entry): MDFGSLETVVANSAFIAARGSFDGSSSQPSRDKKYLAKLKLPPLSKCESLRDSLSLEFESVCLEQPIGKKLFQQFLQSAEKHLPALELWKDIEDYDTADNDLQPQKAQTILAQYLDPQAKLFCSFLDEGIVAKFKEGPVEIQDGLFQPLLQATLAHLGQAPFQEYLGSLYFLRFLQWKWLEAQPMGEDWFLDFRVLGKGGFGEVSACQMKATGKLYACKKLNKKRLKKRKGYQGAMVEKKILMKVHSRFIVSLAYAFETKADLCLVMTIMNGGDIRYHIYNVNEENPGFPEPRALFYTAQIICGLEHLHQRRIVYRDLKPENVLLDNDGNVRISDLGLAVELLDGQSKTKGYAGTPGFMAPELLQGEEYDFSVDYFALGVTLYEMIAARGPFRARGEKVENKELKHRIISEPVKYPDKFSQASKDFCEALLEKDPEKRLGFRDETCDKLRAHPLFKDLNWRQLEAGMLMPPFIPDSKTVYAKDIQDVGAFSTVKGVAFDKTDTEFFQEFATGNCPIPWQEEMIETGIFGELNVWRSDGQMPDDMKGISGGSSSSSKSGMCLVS
Put plainly: Selectivity interaction (KinomeScan (DiscoverX)) EUB0000607a GRK1. The following applies: at 10 µM.

Serine/threonine-protein kinase 38-like (Homo sapiens), sequence (Q9Y2H1 2-464 limits assumed): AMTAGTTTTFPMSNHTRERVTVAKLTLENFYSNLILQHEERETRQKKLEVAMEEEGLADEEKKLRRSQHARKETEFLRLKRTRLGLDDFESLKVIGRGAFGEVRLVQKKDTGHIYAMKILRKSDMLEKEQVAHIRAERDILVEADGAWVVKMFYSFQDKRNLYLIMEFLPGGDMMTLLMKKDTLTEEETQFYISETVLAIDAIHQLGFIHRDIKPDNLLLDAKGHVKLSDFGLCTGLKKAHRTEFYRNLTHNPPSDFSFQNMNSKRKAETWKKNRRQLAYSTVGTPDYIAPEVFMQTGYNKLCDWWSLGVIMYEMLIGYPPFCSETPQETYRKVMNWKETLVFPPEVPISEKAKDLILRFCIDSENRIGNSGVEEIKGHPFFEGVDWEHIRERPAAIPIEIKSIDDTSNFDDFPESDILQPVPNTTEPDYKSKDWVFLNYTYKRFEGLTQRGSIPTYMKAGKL
Mitogen-activated protein kinase 8, sequence (P45983 whole entry): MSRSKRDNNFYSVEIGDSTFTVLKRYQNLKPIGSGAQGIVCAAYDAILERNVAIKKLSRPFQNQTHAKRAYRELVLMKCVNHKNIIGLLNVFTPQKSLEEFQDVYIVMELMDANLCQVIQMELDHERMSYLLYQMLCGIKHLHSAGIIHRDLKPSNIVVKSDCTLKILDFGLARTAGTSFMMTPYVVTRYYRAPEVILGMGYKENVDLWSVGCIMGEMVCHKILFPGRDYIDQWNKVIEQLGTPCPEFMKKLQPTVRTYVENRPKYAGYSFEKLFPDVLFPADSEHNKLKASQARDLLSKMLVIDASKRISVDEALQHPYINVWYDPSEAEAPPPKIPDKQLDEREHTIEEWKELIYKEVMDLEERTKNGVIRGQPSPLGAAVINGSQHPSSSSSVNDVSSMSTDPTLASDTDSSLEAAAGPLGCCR
Citron Rho-interacting kinase (Homo sapiens), sequence (O14578 whole entry): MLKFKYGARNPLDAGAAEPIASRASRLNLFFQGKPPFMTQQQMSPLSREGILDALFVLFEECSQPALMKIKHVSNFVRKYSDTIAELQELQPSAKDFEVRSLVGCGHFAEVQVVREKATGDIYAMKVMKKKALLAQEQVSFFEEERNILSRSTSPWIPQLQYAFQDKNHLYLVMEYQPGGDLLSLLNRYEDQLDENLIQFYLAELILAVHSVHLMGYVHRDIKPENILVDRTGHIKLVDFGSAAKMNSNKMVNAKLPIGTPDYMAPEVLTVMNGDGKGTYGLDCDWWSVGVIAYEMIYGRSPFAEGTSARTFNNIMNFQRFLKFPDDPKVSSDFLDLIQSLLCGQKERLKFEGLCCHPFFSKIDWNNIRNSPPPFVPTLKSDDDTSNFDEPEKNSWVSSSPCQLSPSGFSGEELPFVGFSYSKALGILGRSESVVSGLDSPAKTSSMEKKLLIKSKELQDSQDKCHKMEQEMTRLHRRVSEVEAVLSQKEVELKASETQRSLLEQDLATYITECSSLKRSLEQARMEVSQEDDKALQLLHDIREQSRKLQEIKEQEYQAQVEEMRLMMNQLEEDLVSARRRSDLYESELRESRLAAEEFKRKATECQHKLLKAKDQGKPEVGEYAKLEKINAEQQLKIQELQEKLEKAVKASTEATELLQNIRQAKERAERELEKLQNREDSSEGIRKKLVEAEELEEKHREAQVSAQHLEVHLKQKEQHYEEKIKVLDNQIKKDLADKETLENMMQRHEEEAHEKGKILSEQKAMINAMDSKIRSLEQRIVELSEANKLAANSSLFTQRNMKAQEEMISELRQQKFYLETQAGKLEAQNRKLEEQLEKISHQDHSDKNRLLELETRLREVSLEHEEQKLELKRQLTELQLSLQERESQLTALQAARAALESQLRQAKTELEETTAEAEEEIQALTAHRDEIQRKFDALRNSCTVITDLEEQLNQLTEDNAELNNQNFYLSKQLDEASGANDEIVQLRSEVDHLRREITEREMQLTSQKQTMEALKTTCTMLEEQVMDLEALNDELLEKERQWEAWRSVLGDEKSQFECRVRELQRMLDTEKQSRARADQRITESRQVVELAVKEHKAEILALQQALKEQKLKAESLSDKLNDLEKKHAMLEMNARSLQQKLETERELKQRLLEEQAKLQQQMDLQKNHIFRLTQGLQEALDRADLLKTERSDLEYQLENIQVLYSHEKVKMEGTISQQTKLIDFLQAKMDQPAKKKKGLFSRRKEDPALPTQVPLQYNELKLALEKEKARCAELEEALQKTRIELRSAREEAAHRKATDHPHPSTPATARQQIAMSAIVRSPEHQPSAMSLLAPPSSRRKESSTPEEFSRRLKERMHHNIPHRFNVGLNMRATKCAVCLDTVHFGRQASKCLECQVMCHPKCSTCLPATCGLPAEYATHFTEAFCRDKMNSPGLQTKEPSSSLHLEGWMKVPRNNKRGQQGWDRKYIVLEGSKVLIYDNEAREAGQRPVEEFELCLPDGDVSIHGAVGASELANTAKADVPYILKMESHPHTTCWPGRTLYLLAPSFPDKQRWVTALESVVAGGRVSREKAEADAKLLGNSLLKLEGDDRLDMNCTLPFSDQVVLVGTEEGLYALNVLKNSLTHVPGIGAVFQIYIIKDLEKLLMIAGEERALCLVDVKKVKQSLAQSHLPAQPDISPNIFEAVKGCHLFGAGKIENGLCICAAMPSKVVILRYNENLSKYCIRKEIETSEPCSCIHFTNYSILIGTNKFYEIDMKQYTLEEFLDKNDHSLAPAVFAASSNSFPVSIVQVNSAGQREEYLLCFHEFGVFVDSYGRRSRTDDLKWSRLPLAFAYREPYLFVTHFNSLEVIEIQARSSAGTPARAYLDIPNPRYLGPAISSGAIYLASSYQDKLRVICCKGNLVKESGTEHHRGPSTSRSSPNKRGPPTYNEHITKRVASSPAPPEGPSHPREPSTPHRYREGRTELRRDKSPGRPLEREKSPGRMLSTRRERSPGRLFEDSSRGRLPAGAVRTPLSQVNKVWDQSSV

On to `Cc1ccc(-c2ccc3c(ccc4sc5c(c43)NC[C@@H](C)NC5=O)n2)cn1`, for which, in assay [1], the % of inhibition came to 10%.

On to `Cc1cc([C@@H](C)Nc2ccccc2C(=O)O)c2nc(N3CCOCC3)cc(=O)n2c1` [AZD-6482], for which, in assay [2], the % of control was determined as 94%. In the case of `CN(C)C/C=C/C(=O)Nc1ccc(C(=O)N2CCCC(Nc3ncc(Cl)c(-c4c[nH]c5ccccc45)n3)C2)cc1` (stereo not drawn), the % of control in assay [3] turned out to be 83%. Regarding `O=C(NOC[C@H](O)CO)c1ccc(F)c(F)c1Nc1ccc(I)cc1F`, the % of control in assay [4] turned out to be 100%; in assay [5] it was 87%; in assay [6] it was 78%; in assay [7], 82%. Consider `CNC(=O)Nc1ccc(-c2nc(N3CC4CCC(C3)O4)c3cnn(C4CCC5(CC4)OCCO5)c3n2)cc1`, for which, in assay [8], the % of control was found to be 100%.
